In patent US6169083A, “Preventives/remedies for stomatitis” (Zeria Pharmaceutical Co., Ltd., priority 1996, dated 2001):

How the values were obtained:
rats = test: Acute toxicity (oral administration to rats); assay type: in vivo
Experimental: (2) The LD50 value of the sodium alginate was 5,000 mg/kg as determined by oral administration to rats.

[1] = Clinical examples: treatment of stomatitis in cancer patients subjected to chemotherapy and/or radiotherapy; assay type: in vivo, patient
Text: Examples (Clinical Examples):
The frequency indicated in each example indicates a symptomatic process and was judged on the basis of the side effect standard by the Japanese Cancer Association. The frequency and symptom thereof are as follows, and a higher frequency indicates a severer symptom. […]

With sodium alginate [reference compound] the LD50 (rats) was 5,000 mg/kg.
With `NCCC(=O)[N-][C@@H](Cc1c[nH]cn1)C(=O)[O-].[Zn+2]` [crystalline L-carnosine zinc salt, L-carnosine zinc salt] the LD50 (rats) was 8,441 mg/kg, the “clinical outcome of stomatitis” value ([1]; Example 1, suspension 150 mg/100 ml, 5 ml, 5 or 6 times a day, 8 days) was “the erosion and ulcer arisen on the intraoral mucosa were completely healed” and the “clinical outcome of stomatitis” value ([1]; Example 2, suspension 450 mg/100 ml, 5 ml, 2 to 4 times a day 6 days, then 3 days, swab additional 2 days) was “the ulcer arisen on the intraoral mucosa and angulus oris was completely healed, and the patient became able to ingest a solid diet”. For the same compound, the “clinical outcome of stomatitis” value ([1]; Example 3, suspension 300 mg/100 ml, 5 ml, twice a day, 10 days) was “the ulcer arisen on the intraoral mucosa was completely healed, and the patient became able to ingest a solid diet” and the “clinical outcome of stomatitis” value ([1]; Example 12, ointment 150 mg in plastibase 100 g, swab, 3 to 5 times a day, 9 days) was “the ulcer in the oral cavity was completely healed, and the patient became able to ingest a solid diet”.
